Assay results: patent US20240173419A1, “CDK2 DEGRADERS AND USES THEREOF” (Kymera Therapeutics, Inc., priority 2022, published 2024)

Molecular target: T1, CDK2 (Homo sapiens, UniProt P24941)
T1 construct: endogenous in cells; host or cells: MKN1 cells
Test: CDK2 degradation in MKN1 cells (AlphaLISA)
Type: cell-based
Parameters: key to CDK2 degradation 14 h: Mean external-Abs DC50 (nM): A (<100 nM); B (≥100-500 nM); C (>500-1000 nM); D (>1000 nM); E (not achieved)
Conditions: for DC50: read-out: CDK2 degradation 14 h: Mean external-Abs DC50; for Dmax: MKN-1, 14 h incubation
Experimental: Degradation of CDK2 in MKN1 cells was measured using AlphaLISA technology (PerkinElmer ALSU-TCDK2-A10K). MKN1 cells were maintained in RPMI1640 medium containing 10% FBS+1× penn/strep. Cells were seeded in 96-well plates (Corning 3599) at a density of 2e4 cells per well in 80 μL of fresh complete growth medium. Cells were incubated overnight at 37° C., 5% CO2. Compounds were then added to the cell assay plates with a final top concentration of 10 μM in a 1:5 dilution series with a total of 11 doses (0.001 nM-10 μM). The final volume per well was 160 μL and the final DMSO concentration was 0.1%. Additionally, wells containing no cells and only complete growth medium were also maintained on the cell assay plates (‘no cell’ wells) and processed along with experimental wells. After 14 hour-incubation at 37° C., 5% CO2, the medium was removed and the cells were washed once with 100 μL of 1×PBS. Following removal of PBS, 40 μL of 1× Lysis Buffer containing 1× protease and phosphatase inhibitors (Roche 4693116001; Roche 4906837001) were added to each well. The cell assay plate was agitated on a plate shaker at 350 rpm for 10 minutes at room temperature. 10 μL of each cell lysate were transferred to a 384-well plate (PerkinElmer 6007290). 10 μL of control lysates (from PerkinElmer ALSU-TCDK2-A10K kit) were added to separate wells to generate a standard curve. Activation Buffer was prepared by diluting 25-fold in combined Reaction Buffer 1 and Reaction Buffer 2. Acceptor Beads were diluted 50-fold in combined Reaction Buffers. 5 μL of Acceptor Mix were added to each well. The plate was sealed with Topseal-Aadhesive film, covered with foil, and incubated in the dark for 1 hour at room temperature. Under subdued light, the Donor Beads were diluted 50-fold in Dilution Buffer. 5 μL of Donor Mix were added to each well under subdued light. The plate was sealed with Topseal-A adhesive film, covered with foil, and incubated in the dark for 1 hour at room temperature. Under subdued light, the plates were analyzed on an EnVision Microplate Reader (PerkinElmer Model 2009-0030). The average signal from ‘no cell’ wells was subtracted from the signal in experimental wells prior to calculating Alpha signal for test compounds and negative control (0.100 DMSO). The data were analyzed using Xlfit (v5.3. 1.3) and the dose-dependent CDK2 degradation data were fit using a four-parameter logistic model to calculate DC50.

| Compound | CDK2 degradation 14 h: Average Dmax % (14 h incubation) | DC50 (14 h incubation) | Dmax | CDK2 degradation 14 h: Mean external-Abs DC50 (nM) (14 h incubation) |
| --- | --- | --- | --- | --- |
| Cc1cc(S(=O)(=O)NC(C)COC2CN(CC3CCN(c4ccc5c(c4F)n(C)c(=O)n5C4CCC(=O)NC4=O)CC3)C2)ccc1Nc1ncc(C(F)(F)F)c(C2CCC(C)(O)CC2)n1 (racemic) [I-852] | B (B (>50% -75%)) | < 100 nM |  |  |
| Cc1cc(S(=O)(=O)NC(C)COC2CCC(CN3CCN(c4ccc5c(c4F)n(C)c(=O)n5C4CCC(=O)NC4=O)CC3)CC2)ccc1Nc1ncc(C(F)(F)F)c(C2CCC(C)(O)CC2)n1 (racemic) [I-859] |  | < 100 nM |  |  |
| [2H]C(C)(COC1CCC(CN2CCN(c3ccc4c(c3F)n(C)c(=O)n4C3CCC(=O)NC3=O)CC2)CC1)NS(=O)(=O)c1ccc(Nc2ncc(C(F)(F)F)c(C3CCC(C)(O)CC3)n2)c(C)c1 (racemic) [I-859] | A (A (>75% o)) |  |  |  |
| Cc1cc(S(=O)(=O)NC2CCC(CN3CCN(c4ccc([C@@H]5CCC(=O)NC5=O)c(Cl)c4)CC3)CC2)ccc1Nc1ncc(C(F)(F)F)c(N2CCC[C@](C)(O)C2)n1 (single isomer, unassigned) [I-809] |  | < 100 nM | > 75% |  |
| Cc1cc(S(=O)(=O)NC2CCC(CN3CCN(c4ccc([C@H]5CCC(=O)NC5=O)c(Cl)c4)CC3)CC2)ccc1Nc1ncc(C(F)(F)F)c(N2CCC[C@](C)(O)C2)n1 (single isomer, unassigned) [I-817] |  | 100 to 500 nM | > 75% |  |
| Cc1cc(S(=O)(=O)CCCO[C@H]2CC[C@H](CN3CCC(c4ccc5c(c4)n(C)c(=O)n5C4CCC(=O)NC4=O)CC3)CC2)ccc1Nc1ncc2cc(Cl)c(=O)n(C3CCCC3)c2n1 (stereo partly shown) [I-3, 3-[5-[1-[[4-[3-[4-[(6-Chloro-8-cyclopentyl-7-oxo-pyrido[2,3-d]pyrimidin-2-yl)amino]-3-methyl-phenyl]sulfonylpropoxy]cyclohexyl]methyl]-4-piperidyl]-3-methyl-2-oxo-benzimidazol-1-yl]piperidine-2,6-dione] |  | < 100 nM | > 75% |  |
| Cc1cc(S(=O)(=O)CCCO[C@H]2CC[C@H](CN3CCC(c4ccc5c(c4)n(C4CCC(=O)NC4=O)c(=O)n5C)CC3)CC2)ccc1Nc1nccc(-c2cnc(C)n2C(C)C)n1 (stereo partly shown) [I-4] | B (B (>50% -75%)) | < 100 nM |  |  |
| Cc1cc(S(=O)(=O)CCCO[C@H]2CC[C@H](CN3CCC(c4ccc5c(c4)n(C4CCC(=O)NC4=O)c(=O)n5C)CC3)CC2)ccc1Nc1ncc2cc(C(F)F)c(=O)n(C(C)C)c2n1 (stereo partly shown) [I-6] | B (B (>50% -75%)) |  |  | E |
| Cc1cc(S(=O)(=O)C(C)CCO[C@H]2CC[C@H](CN3CCC(c4ccc5c(c4)n(C4CCC(=O)NC4=O)c(=O)n5C)CC3)CC2)ccc1Nc1ncc2cc(Cl)c(=O)n(C3CCCC3)c2n1 (stereo partly shown) [I-12] | A (A (>75% o)) | < 100 nM |  |  |
| Cc1cc(S(=O)(=O)C2CCC(N3CCC(CN(C)c4cccc5c4n(C)c(=O)n5C4CCC(=O)NC4=O)CC3)CC2)ccc1Nc1ncc2cc(Cl)c(=O)n(C3CCCC3)c2n1 (stereo not shown) [I-33] | A (A (>75% o)) | < 100 nM |  |  |
| Cc1cc(S(=O)(=O)C2CC3(CCN(CC4CCN(c5ccc(NC6CCC(=O)NC6=O)cc5F)CC4)CC3)C2)ccc1Nc1ncc2cc(Cl)c(=O)n(C3CCCC3)c2n1 (stereo not shown) [I-36] | B (B (>50% -75%)) | < 100 nM |  |  |
| Cc1cc(S(=O)(=O)C2CC3(CCN(CC4CCN(c5ccc(NC6CCC(=O)NC6=O)cc5)CC4)CC3)C2)ccc1Nc1ncc2cc(Cl)c(=O)n(C3CCCC3)c2n1 (stereo not shown) [I-37] | B (B (>50% -75%)) | 100 to 500 nM |  |  |
| Cc1cc(S(=O)(=O)C2CC3(CCN(CC4CCN(c5ccc6c(c5F)n(C)c(=O)n6C5CCC(=O)NC5=O)CC4)CC3)C2)ccc1Nc1ncc2cc(Cl)c(=O)n(C3CCCC3)c2n1 (stereo not shown) [I-38] | A (A (>75% o)) | < 100 nM |  |  |
| Cc1cc(S(=O)(=O)C2CCC(N3CC4(CCN(c5cccc6c5n(C)c(=O)n6C5CCC(=O)NC5=O)CC4)C3)CC2)ccc1Nc1ncc2c(n1)N(C1CCCC1)C(=O)C21CC1 (stereo not shown) [I-39] | B (B (>50% -75%)) | < 100 nM |  |  |
| Cc1cc(S(=O)(=O)C2CC3(CCN(CC4CCN(c5cccc6c5n(C)c(=O)n6C5CCC(=O)NC5=O)CC4)CC3)C2)ccc1Nc1ncc2c(n1)N(C1CCCC1)C(=O)C21CC1 (stereo not shown) [I-42] | A (A (>75% o)) | < 100 nM |  |  |
| Cc1cc(S(=O)(=O)C2CC3(CCN(CC4CCN(c5cccc6c5n(C)c(=O)n6C5CCC(=O)NC5=O)CC4)CC3)C2)ccc1Nc1ncc2cc(Cl)c(=O)n(C3CCCC34CC4)c2n1 (stereo not shown) [I-44] | A (A (>75% o)) | < 100 nM |  |  |
| Cc1cc(S(=O)(=O)C2CC3(CCN(CC4(F)CCN(c5cccc6c5n(C)c(=O)n6C5CCC(=O)NC5=O)CC4)CC3)C2)ccc1Nc1ncc2cc(Cl)c(=O)n(C3CCCC3)c2n1 (stereo not shown) [I-45] | A (A (>75% o)) | 100 to 500 nM |  |  |
| Cc1cc(S(=O)(=O)C2CCC(CN(C)C3CCN(c4cccc5c4n(C)c(=O)n5C4CCC(=O)NC4=O)CC3)CC2)ccc1Nc1ncc(C(F)(F)F)c(-c2cnn(C)c2)n1 (stereo not shown) [I-46] | A (A (>75% o)) | < 100 nM |  |  |
| Cc1cc(S(=O)(=O)C2CCN(C3CC4(CCN(c5cccc6c5n(C)c(=O)n6C5CCC(=O)NC5=O)CC4)C3)CC2)ccc1Nc1ncc2c(n1)N(C1CCCC1)C(=O)C21CC1 (stereo not shown) [I-52] | B (B (>50% -75%)) | 100 to 500 nM |  |  |
| Cc1cc(S(=O)(=O)[C@H]2CC[C@H](CN(C)C3CCN(c4cccc5c4n(C)c(=O)n5C4CCC(=O)NC4=O)CC3)CC2)ccc1Nc1ncc2c(n1)N(C1CCCC1)C(=O)C21CC1 (stereo partly shown) [I-53] | A (A (>75% o)) | < 100 nM |  |  |

The remaining lines, values ahead:

| CDK2 degradation 14 h: Average Dmax % (14 h incubation) | DC50 (14 h incubation) | Dmax | CDK2 degradation 14 h: Mean external-Abs DC50 (nM) (14 h incubation) | Compound |
| --- | --- | --- | --- | --- |
| A (A (>75% o)) | < 100 nM |  |  | Cc1cc(S(=O)(=O)C2CCN(CCN3CCN(c4cccc5c4n(C)c(=O)n5C4CCC(=O)NC4=O)CC3)CC2)ccc1Nc1ncc2cc(Cl)c(=O)n(C(C)C)c2n1 (stereo not shown) [I-7] |
| B (B (>50% -75%)) | 100 to 500 nM |  |  | Cc1cc(S(=O)(=O)C2CCN(CCN3CCC(c4cccc5c4n(C)c(=O)n5C4CCC(=O)NC4=O)CC3)CC2)ccc1Nc1ncc2cc(Cl)c(=O)n(C(C)C)c2n1 (stereo not shown) [I-8] |
| A (A (>75% o)) | < 100 nM |  |  | Cc1cc(S(=O)(=O)C2CCN(C3CCN(CC4CCN(c5cccc6c5n(C)c(=O)n6C5CCC(=O)NC5=O)CC4)CC3)CC2)ccc1Nc1ncc2cc(Cl)c(=O)n(C(C)C)c2n1 (stereo not shown) [I-10] |
| A (A (>75% o)) | < 100 nM |  |  | Cc1cc(S(=O)(=O)C2CCN(CCC3CCN(c4cccc5c4n(C)c(=O)n5C4CCC(=O)NC4=O)CC3)CC2)ccc1Nc1ncc2cc(Cl)c(=O)n(C(C)C)c2n1 (stereo not shown) [I-11] |
| B (B (>50% -75%)) | < 100 nM |  |  | Cc1cc(S(=O)(=O)C2CC(N3CCC4(CC3)CN(c3cccc5c3n(C)c(=O)n5C3CCC(=O)NC3=O)C4)C2)ccc1Nc1ncc2cc(Cl)c(=O)n(C3CCCC3)c2n1 (stereo not shown) [I-35] |
| A (A (>75% o)) | < 100 nM |  |  | Cc1cc(S(=O)(=O)C2CC3(CCN(CCC4CCN(c5cccc6c5n(C)c(=O)n6C5CCC(=O)NC5=O)CC4)CC3)C2)ccc1Nc1ncc2cc(Cl)c(=O)n(C3CCCC3)c2n1 (stereo not shown) [I-40] |
| A (A (>75% o)) | 100 to 500 nM |  |  | Cc1cc(S(=O)(=O)C2CCN(CCN3CCN(c4cccc5c4n(C)c(=O)n5C4CCC(=O)NC4=O)CC3=O)CC2)ccc1Nc1ncc2cc(Cl)c(=O)n(C3CCCC3)c2n1 (stereo not shown) [I-43] |
| A (A (>75% o)) | < 100 nM |  |  | Cc1cc(S(=O)(=O)C2CCN(CCCN3CCN(c4cccc5c4n(C)c(=O)n5C4CCC(=O)NC4=O)CC3)CC2)ccc1Nc1ncc2cc(Cl)c(=O)n(C(C)C)c2n1 (stereo not shown) [I-47] |
| B (B (>50% -75%)) | < 100 nM |  |  | Cc1cc(S(=O)(=O)C2CCN(C(=O)CN3CCN(c4cccc5c4n(C)c(=O)n5C4CCC(=O)NC4=O)CC3)CC2)ccc1Nc1ncc2cc(Cl)c(=O)n(C3CCCC3)c2n1 (stereo not shown) [I-48] |
|  | < 100 nM | > 75% |  | Cc1cc(S(=O)(=O)C2CCN(CCN3CCN(c4cccc5c4n(C)c(=O)n5C4CCC(=O)NC4=O)CC3)CC2)ccc1Nc1ncc2c(n1)N(C1CCCC1)C(=O)C21CC1 (stereo not shown) [I-50, 3-[4-[4-[2-[4-[4-[(7′-Cyclopentyl-6′-oxo-spiro[cyclopropane-1,5′-pyrrolo[2,3-d]pyrimidine]-2′-yl)amino]-3-methyl-phenyl]sulfonyl-1-piperidyl]ethyl]piperazin-1-yl]-3-methyl-2-oxo-benzimidazol-1-yl]piperidine-2,6-dione] |
